Measured values: patent US10619138B2, “Herbicide-resistant hydroxyphenylpyruvate dioxygenases” (BASF SE, priority 2013, dated 2020)

What was measured:
[1] = target: T1, Arabidopsis HPPD (SEQ ID NO: 42) (Arabidopsis thaliana, UniProt P93836); assay: In vitro HPPD activity assay (HGA by HPLC), wildtype enzyme characterization; type: biochemical; settings: normalized on Arabidopsis wild-type HPPD; reference enzyme
T1 construct: Arabidopsis (42); His tag; made in house; host or cells: E. coli BL21 (DE3)
T1 sequence (P93836 1-445): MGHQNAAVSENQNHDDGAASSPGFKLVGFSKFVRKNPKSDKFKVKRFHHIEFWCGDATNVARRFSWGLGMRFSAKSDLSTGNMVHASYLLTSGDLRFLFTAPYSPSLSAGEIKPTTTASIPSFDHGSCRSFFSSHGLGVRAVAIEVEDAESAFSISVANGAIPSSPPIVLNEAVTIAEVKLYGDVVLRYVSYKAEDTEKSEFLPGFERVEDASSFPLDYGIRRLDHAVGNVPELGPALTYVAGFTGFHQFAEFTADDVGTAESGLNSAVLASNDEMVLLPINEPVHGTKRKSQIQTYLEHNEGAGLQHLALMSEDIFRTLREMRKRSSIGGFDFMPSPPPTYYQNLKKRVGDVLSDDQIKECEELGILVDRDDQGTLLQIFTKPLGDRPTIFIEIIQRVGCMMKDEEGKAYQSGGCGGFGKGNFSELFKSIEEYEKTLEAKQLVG
Protocol: (§1) The activity assay for HPPD is based on the analysis of homogentisic acid by reversed phase HPLC.
(§2) The assay mixture can contain 150 mM potassium phosphate buffer pH 7.0, 50 mM L-ascorbic acid, 100 μM Catalase (Sigma-Aldrich), 1 μM FeSO4 and 0.2 units of purified HPPD enzyme in a total volume of 505 μl. 1 unit is defined as the amount of enzyme that is required to produce 1 nmol of HGA per minute at 20° C.
(§3) The reaction is allowed to proceed for 45 min at room temperature. The reaction is stopped by the addition of 50 μl of 4.5 M phosphoric acid. The sample is filtered using a […] pore size PVDF filtration device.
(§4) 5 μl of the cleared sample is analyzed on an UPLC HSS T3 column (particle size 1.8 μm, dimensions 2.1×50 mm; Waters) by isocratic elution using 90% 20 mM NaH2PO4 pH 2.2, 10% methanol (v/v).
(§5) HGA is detected electrochemically at 750 mV (mode: DC; polarity: positive) and quantified by integrating peak areas (Empower software; Waters).
Inhibitors are dissolved in DMSO (dimethylsulfoxide) to a concentration of 0.5 mM. From this stock solution serial five-fold dilutions are prepared in DMSO, which are used in the assay. The respective inhibitor solution accounts for 1% of the assay volume. […] Activities are normalized by setting the uninhibited enzyme activity to 100%. IC50 values are calculated using non-linear regression.
(§6) Using methods which are described in the above examples or well known in the art, purified, recombinant wildtype HPPD enzymes are characterized with respect to their kinetic properties and sensitivity towards HPPD inhibiting herbicides. Apparent michaelis constants (Km) and maximal reaction velocities (Vmax) are calculated by non-linear regression with the software GraphPad Prism 5 (GraphPad Software, La Jolla, USA) using a substrate inhibition model. […] Weighted means (by standard error) of Km and IC50 values are calculated from at least three independent experiments.
(§7) Field performance of the HPPD enzyme, which is used as a herbicide tolerance trait may depend not only on its lack of sensitivity towards HPPD inhibiting herbicides but also on its activity. To assess the potential performance of a herbicide tolerance trait a tolerance index (TI) is calculated using the following formula: […]
(§8) Easy comparison and ranking of each trait is enabled by normalizing tolerance indexes on Arabidopsis wild-type HPPD.

[2] = test system: Algoriphagus HPPD (SEQ ID NO: 22); assay: In vitro HPPD activity assay, tolerance index; type: biochemical, Algoriphagus machipongonensis; settings: normalized on Arabidopsis wild-type HPPD
Protocol: as §1, §2, §3, §4, §5
(§9) Inhibitors are dissolved in DMSO (dimethylsulfoxide) to a concentration of 0.5 mM. From this stock solution serial five-fold dilutions are prepared in DMSO, which are used in the assay. The respective inhibitor solution accounts for 1% of the assay volume. Thus, final inhibitor concentrations range from 5 μM to 320 pM, respectively. Activities are normalized by setting the uninhibited enzyme activity to 100%. IC50 values are calculated using non-linear regression.
as §6, with “experiments. The Cheng-Prusoff equation for competitive inhibition (Cheng, Y. C.; Prusoff, W. H. Biochem Pharmacol 1973, 22, 3099-3108) is used to calculate dissociation constants (Ki).” for “experiments.”
as §7, §8

[3] = test system: Belliella HPPD (SEQ ID NO: 12); assay: In vitro HPPD activity assay, tolerance index; type: biochemical, Belliella baltica; settings: normalized on Arabidopsis wild-type HPPD
Protocol: as §1, §2, §3, §4, §5, §9
as §6, with “experiments. The Cheng-Prusoff equation for competitive inhibition (Cheng, Y. C.; Prusoff, W. H. Biochem Pharmacol 1973, 22, 3099-3108) is used to calculate dissociation constants (Ki).” for “experiments.”
as §7, §8

[4] = test system: Geodermatophilus HPPD (SEQ ID NO: 32); assay: In vitro HPPD activity assay, tolerance index; type: biochemical, Geodermatophilus obscurus; settings: normalized on Arabidopsis wild-type HPPD
Protocol: as §1, §2, §3, §4, §5, §9
as §6, with “experiments. The Cheng-Prusoff equation for competitive inhibition (Cheng, Y. C.; Prusoff, W. H. Biochem Pharmacol 1973, 22, 3099-3108) is used to calculate dissociation constants (Ki).” for “experiments.”
as §7, §8

[5] = test system: Herpetosiphon HPPD (SEQ ID NO: 26); assay: In vitro HPPD activity assay, tolerance index; type: biochemical, Herpetosiphon aurantiacus; settings: normalized on Arabidopsis wild-type HPPD
Protocol: as §1, §2, §3, §4, §5, §9
as §6, with “experiments. The Cheng-Prusoff equation for competitive inhibition (Cheng, Y. C.; Prusoff, W. H. Biochem Pharmacol 1973, 22, 3099-3108) is used to calculate dissociation constants (Ki).” for “experiments.”
as §7, §8

[6] = test system: Mucilaginibacter HPPD (SEQ ID NO: 28); assay: In vitro HPPD activity assay, tolerance index; type: biochemical, Mucilaginibacter paludis; settings: normalized on Arabidopsis wild-type HPPD
Protocol: as §1, §2, §3, §4, §5, §9
as §6, with “experiments. The Cheng-Prusoff equation for competitive inhibition (Cheng, Y. C.; Prusoff, W. H. Biochem Pharmacol 1973, 22, 3099-3108) is used to calculate dissociation constants (Ki).” for “experiments.”
as §7, §8

[7] = test system: Microscilla HPPD (SEQ ID NO: 20); assay: In vitro HPPD activity assay, tolerance index; type: biochemical, Microscilla marina; settings: normalized on Arabidopsis wild-type HPPD
Protocol: as §1, §2, §3, §4, §5, §9
as §6, with “experiments. The Cheng-Prusoff equation for competitive inhibition (Cheng, Y. C.; Prusoff, W. H. Biochem Pharmacol 1973, 22, 3099-3108) is used to calculate dissociation constants (Ki).” for “experiments.”
as §7, §8

[8] = test system: Nitritalea HPPD (SEQ ID NO: 14); assay: In vitro HPPD activity assay, tolerance index; type: biochemical, Nitritalea halalkaliphila; settings: normalized on Arabidopsis wild-type HPPD
Protocol: as §1, §2, §3, §4, §5, §9
as §6, with “experiments. The Cheng-Prusoff equation for competitive inhibition (Cheng, Y. C.; Prusoff, W. H. Biochem Pharmacol 1973, 22, 3099-3108) is used to calculate dissociation constants (Ki).” for “experiments.”
as §7, §8

[9] = test system: Pontibacter HPPD (SEQ ID NO: 16); assay: In vitro HPPD activity assay, tolerance index; type: biochemical, Pontibacter sp.; settings: normalized on Arabidopsis wild-type HPPD
Protocol: as §1, §2, §3, §4, §5, §9
as §6, with “experiments. The Cheng-Prusoff equation for competitive inhibition (Cheng, Y. C.; Prusoff, W. H. Biochem Pharmacol 1973, 22, 3099-3108) is used to calculate dissociation constants (Ki).” for “experiments.”
as §7, §8

[10] = test system: Scenedesmus HPPD (SEQ ID NO: 4); assay: In vitro HPPD activity assay, tolerance index; type: biochemical, Scenedesmus obliquus; settings: normalized on Arabidopsis wild-type HPPD
Protocol: as §1, §2, §3, §4, §5, §9
as §6, with “experiments. The Cheng-Prusoff equation for competitive inhibition (Cheng, Y. C.; Prusoff, W. H. Biochem Pharmacol 1973, 22, 3099-3108) is used to calculate dissociation constants (Ki).” for “experiments.”
as §7, §8

Structure (SMILES) | TI (normalized tolerance index) [1] | TI (normalized tolerance index) [2] | TI (normalized tolerance index) [3] | TI (normalized tolerance index) [4] | TI (normalized tolerance index) [5] | TI (normalized tolerance index) [6] | TI (normalized tolerance index) [7] | TI (normalized tolerance index) [8] | TI (normalized tolerance index) [9] | TI (normalized tolerance index) [10]
COCCOCc1nc(C(F)(F)F)ccc1C(=O)C1=C(O)C2CCC(C2)C1=O (centres unmarked) [Inhibitor 3, 2-hydroxy-3-[2-(2-methoxyethoxymethyl)-6-(trifluoromethyl)pyridine-3-carbonyl]bicyclo[3.2.1]oct-2-en-4-one] | 1 | 29 | 10 | 7.4 | 2 | 6.9 | 6.7 | 1.1 | 1.7 | 0.9
CCS(=O)(=O)c1cc(C(F)(F)F)ccc1C1=C(O)c2ncccc2C(C)(C)S1(=O)=O [Inhibitor 5, 7-[2-ethylsulfonyl-4-(trifluoromethyl)phenyl]-5,5-dimethyl-6,6-dioxo-thiopyrano[4,3-b]pyridin-8-ol] | 1 | 24.7 | 10.6 | 5.6 | 1 | 5.2 | 17.7 | 3.2 | 2.5 | 0.6
